Data as given in patent US20070128217A1 (priority 2003, published 2007).

Key:
[1] = system: antibodies in sera from SARS patients (sera 1a, 1b, 2, 6, 37, 62, London, SARS-yellow, SARS-green); assay type: binding, human; design: Binding of serum 6 to linear peptides of protein X1 of SARS-CoV Urbani / Binding of serum 37 to linear peptides of protein X1 of SARS-CoV Urbani / Binding of serum 6 to looped/cyclic peptide (PEPSCAN-ELISA) / Binding of serum 37 to looped/cyclic peptide (PEPSCAN-ELISA) / Binding of serum 37 to looped/cyclic peptides of protein X1 of SARS-CoV Urbani / Binding of serum 6 to linear peptides of protein X2 / Binding of serum 37 to linear peptides of protein X2 / Binding of serum 37 to looped/cyclic peptides of protein X2 of SARS-CoV Urbani / Binding of serum 6 to linear peptides of protein M of SARS-CoV Urbani / Binding of serum 37 to linear peptides of protein M of SARS-CoV Urbani / Binding of serum 6 to looped/cyclic peptides of protein M of SARS-CoV Urbani / Binding of serum 37 to looped/cyclic peptides of protein M of SARS-CoV Urbani / Binding of serum 6 to linear peptides of protein X3 of SARS-CoV Urbani / Binding of serum 37 to linear peptides of protein X3 of SARS-CoV Urbani / Binding of serum 37 to looped/cyclic peptides of protein X3 of SARS-CoV Urbani / Binding of serum 6 to linear peptides of protein X4 of SARS-CoV Urbani / Binding of serum 37 to linear peptides of protein X4 of SARS-CoV Urbani / Binding of serum 37 to looped/cyclic peptides of protein X4 of SARS-CoV Urbani / Binding of serum 6 to linear peptides of protein X5 of SARS-CoV Urbani / Binding of serum 37 to linear peptides of protein X5 of SARS-CoV Urbani / Binding of serum 37 to looped/cyclic peptides of protein X5 of SARS-CoV Urbani / Binding of serum 6 to linear peptides of protein N of SARS-CoV Urbani / Binding of serum 37 to linear peptides of protein N of SARS-CoV Urbani / Binding of serum 6 to linear peptide (PEPSCAN-ELISA) / Binding of serum 1a to looped/cyclic peptides of protein N of SARS-CoV Urbani / Binding of serum 1b to looped/cyclic peptides of protein N of SARS-CoV Urbani / Binding of serum 2 to looped/cyclic peptides of protein N of SARS-CoV Urbani / Binding of serum 6 to looped/cyclic peptides of protein N of SARS-CoV Urbani / Binding of serum 37 to looped/cyclic peptides of protein N of SARS-CoV Urbani / Binding of serum 62 to looped/cyclic peptides of protein N of SARS-CoV Urbani / Binding of serum London to looped/cyclic peptides of protein N of SARS-CoV Urbani / Binding of serum SARS-green to looped/cyclic peptides of protein N of SARS-CoV Urbani: unit not given here
[2] = system: rabbit serum obtained by immunizing a rabbit with the SARS-CoV strain Frankfurt 1; assay type: binding; design: Binding of a rabbit serum to linear peptides / Binding of a rabbit serum to looped peptides / Rabbit serum linear peptides / Rabbit serum looped peptides / Binding of a rabbit serum to linear peptides of protein N of SARS-CoV Urbani (Rabbit serum linear peptides) / Binding of a rabbit serum to looped/cyclic peptides of protein N of SARS-CoV Urbani (Rabbit serum looped peptides): unit not given here
[3] = system: control sera (pooled serum of ten healthy LUMC hospital workers; commercial negative donor pooled serum from the Dutch bloodbank); assay type: binding, human; design: Binding of Control serum LUMC to linear peptides / Binding of Control serum Blood-bank to linear peptides / Binding of Control serum LUMC to looped peptides / Binding of Control Serum Blood-Bank to Looped peptides / Binding of Control serum LUMC to linear peptides of the protein M of SARS-CoV Urbani / Binding of Control serum Blood-bank to linear peptides of the protein M of SARS-CoV Urbani / Binding of Control serum LUMC to looped peptides of the protein M of SARS-CoV Urbani / Binding of Control Serum Blood-Bank to Looped peptides of the protein M of SARS-CoV Urbani: unit not given here
[4] = system: recombinant human anti-SARS-CoV antibody 03-018; assay type: binding; design: Binding of antibody 03-018 to linear peptides of the N protein of SARS-CoV Urbani / Binding of antibody 03-018 to looped/cyclic peptides of the N protein of SARS-CoV Urbani: unit not given here

Sequence | Binding of serum 1a to linear peptide (PEPSCAN-ELISA) [1] | Binding of serum 1a to looped/cyclic peptides of protein N of SARS-CoV Urbani [1] | Binding of serum 1b to linear peptide (PEPSCAN-ELISA) [1] | Binding of serum 1b to looped/cyclic peptides of protein N of SARS-CoV Urbani [1] | Binding of serum 2 to linear peptide (PEPSCAN-ELISA) [1] | Binding of serum 2 to looped/cyclic peptides of protein N of SARS-CoV Urbani [1] | Binding of serum 6 to looped/cyclic peptides of protein N of SARS-CoV Urbani [1] | Binding of serum 37 to looped/cyclic peptides of protein N of SARS-CoV Urbani [1] | Binding of serum 62 to looped/cyclic peptides of protein N of SARS-CoV Urbani [1] | Binding of serum London to looped/cyclic peptides of protein N of SARS-CoV Urbani [1] | Binding of serum SARS-green to looped/cyclic peptides of protein N of SARS-CoV Urbani [1] | Binding of serum SARS-yellow to looped/cyclic peptides of protein N of SARS-CoV Urbani [1] | Binding of a rabbit serum to linear peptides of protein N of SARS-CoV Urbani (Rabbit serum linear peptides) [2] | Binding of a rabbit serum to looped/cyclic peptides of protein N of SARS-CoV Urbani (Rabbit serum looped peptides) [2] | Binding of Control Serum Blood-Bank to Looped peptides [3] | Binding of Control serum Blood-bank to linear peptides [3] | Binding of Control serum LUMC to linear peptides [3] | Binding of Control serum LUMC to looped peptides [3] | Binding of antibody 03-018 to linear peptides of the N protein of SARS-CoV Urbani [4] | Binding of antibody 03-018 to looped/cyclic peptides of the N protein of SARS-CoV Urbani [4] | further results
ALALLLLDRLNQLES | 0.3 | 0.4 | 0.2 | 0.2 | 0.1 | 0.4 | 0.2 | 0.8 | 0.7 | 0.5 | 0.4 | 0.5 | 0.2 | 0.6 | 0.8 | 0.7 | 0.7 | 0.8 | 0.1 | 0.3 | Binding of serum 6 to linear peptide (PEPSCAN-ELISA) [1]: 0.2; Binding of serum 37 to linear peptide (PEPSCAN-ELISA) [1]: 0.5; Binding of serum 62 to linear peptide (PEPSCAN-ELISA) [1]: 0.6; Binding of serum London to linear peptide (PEPSCAN-ELISA) [1]: 0.5; Binding of serum SARS-green to linear peptide (PEPSCAN-ELISA) [1]: 0.4; Binding of serum SARS-yellow to linear peptide (PEPSCAN-ELISA) [1]: 0.5
TVTLLPAADMDDFSR | – | 0.3 | – | 0.2 | – | 0.2 | 0.0 | 0.4 | 0.1 | 0.2 | 0.5 | 0.2 | 0.1 | 0.3 | – | – | – | – | 0.1 | 0.2 | Binding of serum 1a to linear peptides of protein N of SARS-CoV Urbani [1]: 0.2; Binding of serum 1b to linear peptides of protein N of SARS-CoV Urbani [1]: 0.1; Binding of serum 2 to linear peptides of protein N of SARS-CoV Urbani [1]: 0.1; Binding of serum 6 to linear peptides of protein N of SARS-CoV Urbani [1]: 0.2; Binding of serum 37 to linear peptides of protein N of SARS-CoV Urbani [1]: 0.7; Binding of serum 62 to linear peptides of protein N of SARS-CoV Urbani [1]: 0.5; Binding of serum London to linear peptides of protein N of SARS-CoV Urbani [1]: 0.5; Binding of serum SARS-green to linear peptides of protein N of SARS-CoV Urbani [1]: 0.3; Binding of serum SARS-yellow to linear peptides of protein N of SARS-CoV Urbani [1]: 0.5; Control Serum Blood-Bank Looped peptides [3]: 0.3; Control serum Blood-bank linear peptides [3]: 0.6; Control serum LUMC linear peptides [3]: 0.6; Control serum LUMC looped peptides [3]: 0.3
WYFYYLGTGPEASLP | – | 0.4 | – | 0.3 | – | 0.4 | 0.3 | 0.7 | 0.5 | 0.4 | 0.4 | 0.5 | 0.1 | 0.3 | 0.6 | 0.7 | 0.6 | 0.6 | 0.1 | 0.2 | Binding of serum 1a to linear peptides of protein N of SARS-CoV Urbani [1]: 0.3; Binding of serum 1b to linear peptides of protein N of SARS-CoV Urbani [1]: 0.2; Binding of serum 2 to linear peptides of protein N of SARS-CoV Urbani [1]: 0.3; Binding of serum 6 to linear peptides of protein N of SARS-CoV Urbani [1]: 0.2; Binding of serum 37 to linear peptides of protein N of SARS-CoV Urbani [1]: 0.9; Binding of serum 62 to linear peptides of protein N of SARS-CoV Urbani [1]: 0.8; Binding of serum London to linear peptides of protein N of SARS-CoV Urbani [1]: 0.5; Binding of serum SARS-green to linear peptides of protein N of SARS-CoV Urbani [1]: 0.3; Binding of serum SARS-yellow to linear peptides of protein N of SARS-CoV Urbani [1]: 0.7
TVTKKSAAEASKKPR | – | 0.2 | – | 0.1 | – | 0.2 | 0.1 | 0.5 | 0.3 | 0.3 | 0.0 | 0.2 | 0.2 | 0.5 | 0.4 | 1.0 | 1.0 | 0.3 | 0.1 | 0.2 | Recognition of the peptide by sera of SARS-CoV infected individuals, and form (linear, looped/cyclic) in which it is recognized [1]: recognized in linear form
SRGNSRNSTPGSSRG | 0.7 | 0.6 | 0.4 | 0.4 | 0.2 | 0.2 | 0.2 | 0.4 | 0.3 | 0.3 | 0.1 | 0.2 | 0.2 | 0.2 | 0.4 | 0.9 | 0.8 | 0.4 | 0.1 | 0.2 | Binding of serum 6 to linear peptide (PEPSCAN-ELISA) [1]: 0.2; Binding of serum 37 to linear peptide (PEPSCAN-ELISA) [1]: 0.7; Binding of serum 62 to linear peptide (PEPSCAN-ELISA) [1]: 0.7; Binding of serum London to linear peptide (PEPSCAN-ELISA) [1]: 0.5; Binding of serum SARS-green to linear peptide (PEPSCAN-ELISA) [1]: 0.4; Binding of serum SARS-yellow to linear peptide (PEPSCAN-ELISA) [1]: 0.7
